{
  "source": "PubChem BioAssay AID1259409",
  "about": "(Chemical Carcinogenesis Research Information System (CCRIS), 2018)",
  "origin": "cited, not measured here",
  "system": "rodent chemically induced tumor inhibition, incidence and multiplicity",
  "assay": "CCRIS tumor inhibitor studies",
  "conditions": "Route [Inhibitor]: ORAL",
  "data": [
    {"smiles": "CC(=O)Oc1c(C)c(C)c2c(c1C)CCC(C)(CCCC(C)CCCC(C)CCCC(C)C)O2", "note": "(stereo not given)", "values": [
      {"measurement": "tumour outcome (control, treated, inhibition, significance)", "setting": "Carcinogen: 7,12-DIMETHYLBENZ[A]ANTHRACENE, 57-97-6, Dose [Inhibitor]: 1000 MG/KG IN 20% CORN OIL DIET DAILY STARTING 2 WK BEFORE CARCINOGEN TREATMENT AND CONTINUING FOR DURATION OF STUDY (ST, Species: RAT, Strain/Sex: SPRAGUE-DAWLEY/FEMALE, Target Tissue: Type of Lesion: MAMMARY GLAND: ADENOCARCINOMA, Dose [Carcinogen]: 10 MG ONCE AT AGE 50 D", "value": "28/30 (93%), 27/30 (90%), 3%, not significant"},
      {"measurement": "tumour outcome (control, treated, inhibition, significance)", "setting": "Carcinogen: UV-B IRRADIATION, Dose [Inhibitor]: 25, 100 UG/KG IN DIET FOR DURATION OF STUDY BEGINNING 3 WK PRIOR TO IRRADIATION (STUDY DURATION: 40 WK), Species: MOUSE, Strain/Sex: C3H/HEN/FEMALE, Target Tissue: Type of Lesion: SKIN: TUMOR, Dose [Carcinogen]: 6.4 J/M2/SEC 30 MIN/D 5 D/WK FOR 13 WK , IRRADIATION DISCONTINUED FOR 3 WK DUE TO TOXICITY THEN IT WAS RESUMED FOR 2 WK, Promoter: NONE USED", "value": "67%, 46%, 31%, not calculated"},
      {"measurement": "tumour outcome (control, treated, inhibition, significance)", "setting": "Carcinogen: UV-B IRRADIATION, Dose [Inhibitor]: 25, 200 UG/KG IN DIET FOR DURATION OF STUDY BEGINNING 3 WK PRIOR TO IRRADIATION (STUDY DURATION: 40 WK), Species: MOUSE, Strain/Sex: C3H/HEN/FEMALE, Target Tissue: Type of Lesion: SKIN: TUMOR, Dose [Carcinogen]: 6.4 J/M2/SEC 30 MIN/D 5 D/WK FOR 13 WK, IRRADIATION DISCONTINUED FOR 3 WK DUE TO TOXICITY THEN IT WAS RESUMED FOR 2 WK, Promoter: NONE USED", "value": "67%, 19%, 72%, not calculated"}
    ]},
    {"smiles": "CC(C)=CCC/C(C)=C/CO", "values": [
      {"measurement": "tumour outcome (control, treated, inhibition, significance)", "setting": "Carcinogen: 7,12-DIMETHYLBENZ[A]ANTHRACENE, 57-97-6, Dose [Inhibitor]: 0, 36 MMOL/KG IN DIET FOR 24 WK BEGINNING 2 WK PRIOR TO CARCINOGEN DOSE (STUDY DURATION: 24 WK), Species: RAT, Strain/Sex: SPRAGUE-DAWLEY/FEMALE, Target Tissue: Type of Lesion: MAMMARY GLAND: TUMOR, Dose [Carcinogen]: 65 MG/KG BW ONCE, Promoter: NONE USED", "value": "91%, 81%, 11%, not significant"}
    ]},
    {"smiles": "CCCCCCC[Se]C#N", "values": [
      {"measurement": "tumour outcome (control, treated, inhibition, significance)", "setting": "Carcinogen: 7,12-DIMETHYLBENZ[A]ANTHRACENE, 57-97-6, Dose [Inhibitor]: 0.1, 2 PPM (SELENIUM) IN DIET FOR 3 WK BEGINNING 2 WK PRIOR TO CARCINOGEN DOSE (STUDY DURATION: 25 WK), Species: RAT, Strain/Sex: SPRAGUE-DAWLEY/FEMALE, Target Tissue: Type of Lesion: MAMMARY GLAND: TUMOR, Dose [Carcinogen]: 10 MG ONCE, Promoter: NONE USED", "value": "25/30 (83%), 11/30 (37%), 55%, p<0.05"}
    ]}
  ]
}
